Here are results for three molecules from article PMC4995043, “A Diverse Family of Host-Defense Peptides (Piscidins) Exhibit Specialized Anti-Bacterial and Anti-Protozoal Activities in Fishes” (PLoS ONE, 2016).

SMILES strings stand for the structures. Values after ≈ are worked out from the molar mass of the structure shown. Where two headings read alike, the source gives them in different places. Where a SMILES comes first, the peptide text is derived from it.

Experiment [1] deals with Aeromonas salmonicida. In kind it is cell-based. As to conditions: 18 h. The text has this:
(§1) Fish bacterial pathogens, Streptococcus iniae (stock 00–1425; isolated from rainbow trout, Oncorhynchus mykiss), Lactococcus garvieae (stock 00–1422; multiple antibiotic-resistant strain), Vibrio anguillarum (stock 91–3057; ATCC 19264), and Aeromonas salmonicida (stock 91–3053; ATCC® 7965™), and human bacterial pathogens, Enterococcus faecalis (stock 00–1403; ATCC 29212), Staphylococcus aureus (ATCC 29213), Shigella flexneri (stock 00–1402; ATCC 12022), and Escherichia coli (stock 00–1405; ATCC 25922), were cultured from frozen stocks stored in glycerol at -80°C. L. garvieae, A. salmonicida, E. faecalis, S. aureus, and S. flexneri were grown in Mueller Hinton Broth (MHB); the MHB was supplemented with 1% NaCl for L. garvieae. S. iniae, and V. anguillarum were grown in Tryptic Soy Broth (TSB) supplemented with 1.5% NaCl and E. coli was grown in Luria-Bertani Broth (LB). The fish and human pathogens were grown at 25°C and 37°C, respectively, while shaking at 200 rpm for 18 h except for S. iniae, which was grown for 48 h. The cultures were passaged at least three times each when in log phase to ensure that they had acclimated to culture.
(§2) The minimum inhibitory concentrations (MIC) and minimum bactericidal concentrations (MBC) were determined as previously described following standard methods recommended by the […] for MIC90 and MBC determinations of clinical isolates with some modifications. Overnight bacterial cultures were diluted to 80–88% transmittance in their appropriate medium. The cultures were then diluted again to 1:200 and 100 μL was pipetted into each of 3 wells in 11 columns of a 96-well plate (Corning, Inc., Tewksbury, MA), the 12th column loaded with media without bacteria as a sterility control and blank.
(§3) The synthetic piscidin peptides (piscidins 1, 4, and 7 from striped bass; piscidins 1, 5, and 6 from white bass; and piscidin 3 corresponding to both striped bass and white bass) were prepared by diluting the 4 mg/mL stocks to 2 mg/mL in 0.2% bovine serum albumin (BSA) + 0.01% acetic acid. These were then serially diluted to a concentration of 3.9 μg/mL in the same diluent. The piscidin dilutions were added to the first 10 columns of the 96-well plate containing bacteria, […] was loaded with diluent only to act as a positive growth control. The final concentrations tested were 200 μg/mL to 0.39 μg/mL. The plates were incubated with shaking at 200 rpm for 18 h, except for S. iniae, which was incubated for 48 h. Fish pathogens and human pathogens were incubated at 25°C and 37°C, respectively. […] The MIC was taken as the lowest concentration of piscidin that reduced growth when compared to the growth control by more than 50%. To determine the MBC, 20 μL of the media from the wells of the three lowest piscidin concentrations that had no visible growth of bacteria were plated onto the appropriate media plates and incubated as described above. Colonies were counted to determine whether growth was equal to or less than 0.1% of the colony forming units (CFUs) in the original inoculum. The MBC was defined as the lowest concentration of piscidin that killed at least 99.9% of the CFUs in the original inoculum.

Experiment [2] has as its system Enterococcus faecalis. It counts as cell-based. The conditions noted are these: 18 h.
Excerpt: as §1, §2, §3

In experiment [3] the test system is Lactococcus garvieae. In kind it is cell-based. The conditions noted are these: 18 h.
Excerpt: as §1, §2, §3

Experiment [4] deals with Shigella flexneri. In kind it is cell-based. As to conditions: S. flexneri ATCC 12022; kills at least 99.9% of CFUs of original inoculum; 37°C, 18 h.
Excerpt: as §1, §2, §3

For experiment [5], the system named is Staphylococcus aureus. In kind it is cell-based. The conditions noted are these: 37°C, 18 h; for MIC: S. aureus ATCC 29213, Gram +, human pathogen, MHB, OD630, growth reduced by more than 50%; for MBC: S. aureus ATCC 29213, kills at least 99.9% of CFUs of original inoculum.
Excerpt: as §1, §2, §3

Experiment [6] deals with Streptococcus iniae. In kind it is cell-based. The conditions noted are these: 48 h; for MIC: S. iniae stock 00–1425, Gram +, fish pathogen, TSB + 1.5% NaCl, OD630, MIC = lowest concentration reducing growth by more than 50%, 3 wells, 200 to 0.39 μg/mL tested.
Excerpt: as §1, §2, §3

Experiment [7] relates to Vibrio anguillarum. It counts as cell-based. As to conditions: 18 h.
Excerpt: as §1, §2, §3

Experiment [8] has as its system E. coli. In kind it is cell-based, Escherichia coli. The conditions noted are these: 18 h.
Excerpt: as §1, §2, §3

The test system of experiment [9] is Tetrahymena pyriformis. As to conditions: piscidin 1 not among peptides tested, previously observed results, cited from earlier work; for PC100 (100% parasiticidal concentration): lowest concentration that killed all T. pyriformis. The text has this: Table 4 Minimum parasiticidal concentrations (PCmin) and 100% parasiticidal concentrations (PC100) of various synthetic hybrid striped bass piscidins against the ciliated protozoan, Tetrahymena pyriformis. | column: PCmin (uM) / SB P1; PC100 (uM) / SB P1; PC100 (uM) / WB P1

Setting [10] is: E. faecalis ATCC 29212, kills at least 99.9% of CFUs of original inoculum, 37°C.
Where [11] appears, read: L. garvieae stock 00–1422, kills at least 99.9% of CFUs of original inoculum, 25°C.
The mark [12] stands for this setting: S. iniae stock 00–1425, lowest concentration killing at least 99.9% of CFUs of original inoculum, plated from MIC wells, 25°C.

Broadly, the MIC is the smallest concentration in the dilution series that meets the test's criterion for growth inhibition. Broadly, the MBC is the lowest tested concentration that kills the bacteria rather than only halting them. In the case of `CC[C@H](C)[C@H](NC(=O)CNC(=O)[C@H](CCCNC(=N)N)NC(=O)[C@H](Cc1ccccc1)NC(=O)[C@@H](NC(=O)[C@H](Cc1c[nH]cn1)NC(=O)[C@H](Cc1c[nH]cn1)NC(=O)[C@H](Cc1ccccc1)NC(=O)[C@@H](N)Cc1ccccc1)[C@@H](C)CC)C(=O)N[C@H](C(=O)N[C@@H](Cc1c[nH]cn1)C(=O)N[C@H](C(=O)NCC(=O)N[C@@H](CCCCN)C(=O)N[C@H](C(=O)N[C@H](C(=O)N[C@@H](Cc1c[nH]cn1)C(=O)N[C@@H](CCCNC(=N)N)C(=O)N[C@@H](CC(C)C)C(=O)N[C@H](C(=O)N[C@H](C(=O)NCC(=O)O)[C@@H](C)O)C(C)C)[C@@H](C)CC)[C@@H](C)O)C(C)C)C(C)C` [SB P1] (H-FFHHIFRGIVHVGKTIHRLVTG-OH), the MIC in experiment [1] (A. salmonicida ATCC 7965, Gram -, fish pathogen, MHB, 25°C, OD630, growth reduced by more than 50%) is >77.76 µM; in [2] (E. faecalis ATCC 29212, Gram +, human pathogen, MHB, 37°C, OD630, growth reduced by more than 50%), 1.22 µM (≈ 3.14 µg/mL); in experiment [3] (L. garvieae stock 00–1422 (multiple antibiotic-resistant), Gram +, fish pathogen, MHB + 1% NaCl, 25°C, OD630, growth reduced by more than 50%), 1.22 µM; in [5], 2.43 µM (≈ 6.25 µg/mL); in [6] (25°C) it was 1.22 µM; in experiment [7] (V. anguillarum ATCC 19264, Gram -, fish pathogen, TSB + 1.5% NaCl, 25°C, OD630, growth reduced by more than 50%), 2.43 to 4.86 µM. Moreover, the MIC in experiment [8] (E. coli ATCC 25922, Gram -, human pathogen, LB, 37°C, OD630, growth reduced by more than 50%) came out at 4.86 µM (≈ 12.5 µg/mL). Further, the MBC came to 2.43 µM (≈ 6.25 µg/mL) in experiment [2] (setting [10]); 1.22 µM (≈ 3.14 µg/mL) in experiment [3] (setting [11]); 4.86 µM (≈ 12.5 µg/mL) in experiment [4]; 2.43 µM (≈ 6.25 µg/mL) in experiment [5]; 1.22 µM (≈ 3.14 µg/mL) in experiment [6] (setting [12]); 9.72 µM (≈ 25 µg/mL) in experiment [7] (V. anguillarum ATCC 19264, kills at least 99.9% of CFUs of original inoculum, 25°C). In experiment [9], the “PC100 (100% parasiticidal concentration)” value is 5 µM. Besides, the “PCmin (minimum parasiticidal concentration)” value in experiment [9] (lowest concentration that killed at least one T. pyriformis) is 2.5 µM.

In the case of `CC[C@H](C)[C@H](NC(=O)CNC(=O)[C@H](CCCNC(=N)N)NC(=O)[C@H](Cc1ccccc1)NC(=O)[C@@H](NC(=O)[C@H](Cc1c[nH]cn1)NC(=O)[C@H](Cc1c[nH]cn1)NC(=O)[C@@H](NC(=O)[C@@H](N)Cc1ccccc1)[C@@H](C)CC)[C@@H](C)CC)C(=O)N[C@H](C(=O)N[C@@H](Cc1c[nH]cn1)C(=O)N[C@@H](C)C(=O)NCC(=O)N[C@@H](CCCNC(=N)N)C(=O)N[C@@H](CO)C(=O)N[C@H](C(=O)NCC(=O)N[C@@H](CCCNC(=N)N)C(=O)N[C@@H](Cc1ccccc1)C(=O)N[C@@H](CC(C)C)C(=O)N[C@H](C(=O)NCC(=O)O)[C@@H](C)O)[C@@H](C)CC)C(C)C` [SB/WB P3] (H-FIHHIFRGIVHAGRSIGRFLTG-OH; N-terminus and C-terminus assumed), the MBC is >80.26 µM in experiment [1]; 10.03 µM (≈ 25 µg/mL) in [2]; 5.02 µM (≈ 12.5 µg/mL) in [3]; 2.51 µM (≈ 6.25 µg/mL) in [6]; 20.06 µM (≈ 50 µg/mL) in [7]; 80.26 µM (≈ 200 µg/mL) in experiment [8]. For the same molecule, the MIC in experiment [1] was >80.26 µM; in [2], 1.26 µM (≈ 3.14 µg/mL); in experiment [8] it was 80.26 µM (≈ 200 µg/mL).

With `CC[C@H](C)[C@H](NC(=O)CNC(=O)[C@H](CCCNC(=N)N)NC(=O)[C@H](Cc1ccccc1)NC(=O)[C@@H](NC(=O)[C@H](Cc1c[nH]cn1)NC(=O)[C@H](Cc1c[nH]cn1)NC(=O)[C@H](Cc1ccccc1)NC(=O)[C@@H](N)Cc1ccccc1)[C@@H](C)CC)C(=O)N[C@H](C(=O)N[C@@H](Cc1c[nH]cn1)C(=O)N[C@H](C(=O)NCC(=O)N[C@@H](CCCCN)C(=O)N[C@H](C(=O)N[C@H](C(=O)N[C@@H](Cc1c[nH]cn1)C(=O)N[C@@H](CCCCN)C(=O)N[C@@H](CC(C)C)C(=O)N[C@H](C(=O)N[C@H](C(=O)NCC(=O)O)[C@@H](C)O)C(C)C)[C@@H](C)CC)[C@@H](C)O)C(C)C)C(C)C` [WB P1] (H-FFHHIFRGIVHVGKTIHKLVTG-OH; N-terminus and C-terminus assumed), the MBC in experiment [1] was >78.61 µM; in experiment [2] (setting [10]) it was 2.46 µM (≈ 6.26 µg/mL); in experiment [3] (setting [11]), 2.46 µM (≈ 6.26 µg/mL); in [5] it was 2.46 µM (≈ 6.26 µg/mL); in [6] (setting [12]), 2.46 µM (≈ 6.26 µg/mL); in experiment [7] it was 9.83 µM (≈ 25 µg/mL). In addition, in experiment [8], the minimal bactericidal concentration (MBC) is >78.61 µM. Besides, the MIC in [1] was >78.61 µM; in experiment [2] it was 1.23 µM (≈ 3.13 µg/mL); in [5], 2.46 µM (≈ 6.26 µg/mL); in [6] (25°C), 2.46 µM; in [8], 4.91 µM (≈ 12.5 µg/mL). Further, the “PC100 (100% parasiticidal concentration)” value in [9] is 2.48 µM.
